Measurements reported in patent US20260295059A1, “BROAD-SPECTRUM ANTIBIOTIC HYBRIDS FOR THE TREATMENT OF MULTI-DRUG RESISTANT INFECTIONS” (priority 2023, published 2026).
Where a SMILES comes first, the peptide text is derived from it. Bridges are numbered along the chain shown (N, C = ends). [ ]: non-standard residue; d: D form. The star is where a group is joined. ξ: configuration not given here. Decanoyl(3R-OH) = CCCCCCC[C@@H](O)CC(=O)*; Decanoyl = CCCCCCCCCC(=O)*; dDab = NCC[C@@H](N)C(=O)O; Dab = NCC[C@H](N)C(=O)O; ξDab = NCCC(N)C(=O)O

Experiments:
[1] = system: P. aeruginosa; assay: Activity against challenge panel of 207 P. aeruginosa isolates (MIC50/MIC90); format: cell-based; conditions: Pseudomonas aeruginosa
Procedure: (§1) Dry Powder Formulation and in vivo Efficacy of UOM-001 and UOM-005 in a Lung Infection Model. […] The activity of DPI UOM-001 and comparator antibiotics was assessed against a challenge panel consisting of 207 P. aeruginosa isolates collected from different parts of the world; 105 isolates were enriched for resistance against β-lactam/β-lactamase inhibitor combinations (Table 6). […] The teixobactin-lipopeptide hybrids have a labile linker between the two antibiotic components that allows for sustained release of each component at the infection site simultaneously, thereby targeting their synergistic activity. Whereas the individual components when administered together likely display different disposition, uptake, and elimination characteristics, and therefore become diffusely distributed from each other, resulting in the loss of antibacterial synergy. […] In contrast, following intravenous administration of an identical dose, the ELF concentration of UOM-001 was below the limit of quantification (0.1 μg/mL). […] Pulmonary surfactant is a primary component of the ELF which can bind antibiotics that can impede the antibacterial activity of the drug. The binding of UOM-001 and teixobactin (5 mg/L for 4 h 37° C.) to lung surfactant or its individual components was determined by ultracentrifugation and LC-MS (FIG. 5C). The low binding of UOM-001 to lung surfactant is consistent with its good efficacy in the lung infection model. The effect of surfactant on the in vitro antibacterial activity of UOM-001 was assessed with the use of three polymyxin-resistant P. aeruginosa cystic fibrosis isolates. Beractant (Survanta™; Abbott Laboratories) served as the pulmonary surfactant. Beractant is a bovine-derived surfactant containing 25 mg/mL phospholipids. Although its composition differs slightly from that of human surfactant, it is functionally equivalent. For surfactant testing, the bacterial growth medium was supplemented with 10% beractant (=2.5 mg/mL). Since the surfactant produces turbidity, the minimum bactericidal concentration (MBC) was used to compare potency of UOM-001 in the absence or presence of surfactant. The MBCs of UOM-001 (0.125-0.5 mg/L) were not affected even when tested with the highest concentrations of surfactant (2.5 mg/mL, 10%).

[2] = system: Gram-negative bacteria; assay: Antibacterial activity against Gram-negative bacteria; format: cell-based
Text: (§2) Polymyxin lipopeptides can act as powerful potentiators for FDA-approved non-antibiotic drugs, by permeabilizing the Gram-negative outer membrane, allowing the non-antibiotic drug to enter the bacterial cell and reach its intracellular targets (Hussein et al. (2018) Comput. Struct. Biotechnol. J. 16:587-599; Hussein et al. (2017) Microbiol. Drug Resist. 23:640-650; Jasim et al. (2017) J. Biomed. Nanotechnol. 13:447-457; Schneider et al. (2016) ACS Infect. Dis. 2:478-488; Tran et al. (2018) Front. Pharmacol. 9:359; Tran et al. (2018) Front. Microbiol. 9:721; Schneider et al. (2017) Essays Biochem. 61:115-125; Diep et al. (2017) Antimicrob. Agents Chemother. 61; Rao et al. (2016) J. Antimicrob. Chemother. 71:3148-3156; Sharma et al. (2017) Int. J. Antimicrob. Agents 49:224-232).

[3] = system: Gram-positive bacteria; assay: Antibacterial activity against Gram-positive bacteria; format: cell-based
Text: as §2

[4] = system: PDR P. aeruginosa; assay: Activity against challenge panel of 207 P. aeruginosa isolates (MIC50/MIC90); format: cell-based; conditions: P. aeruginosa (n = 207)
Procedure: as §1

[5] = system: P. aeruginosa; assay: MIC determination, P. aeruginosa strains; format: cell-based; conditions: 11 PDR P. aeruginosa strains
Text: (§3) Agents Chemother. 61; Rao et al. (2016) J. Antimicrob. Chemother. 71:3148-3156; Sharma et al. (2017) Int. J. Antimicrob. Agents 49:224-232). Subsequently, this SAR-based design strategy has been expanded to include teixobactins conjugated via labile and non-labile linkers to the polymyxin-lipopeptides (e.g., polymyxin B nonapeptide, FADDI-002 and octapeptin C4) (Velkov et al. (2018) Cell Chem. Biol. 25:380-391 e385; Velkov et al. (2013) Future Microbiol. 8:711-724; Velkov et al. (2014) ACS Chem. Biol. 9:1172-1177; Velkov et al. (2010) J. Med. Chem 53:1898-1916), which generated potent teixobactin lipopeptide hybrids active against teixobactin-resistant PDR Gram-negative ‘superbugs’ (Table 4).

[6] = system: S. aureus; assay: MIC determination, S. aureus strains; format: cell-based; conditions: 3 PDR S. aureus strains
Text: as §3

[7] = system: A. baumannii; assay: MIC determination, A. baumannii strains; format: cell-based; conditions: 4 PDR A. baumannii strains
Text: as §3

[8] = system: pulmonary infections; conditions: 230 critically-ill patients, cited from earlier work
[9] = system: P. aeruginosa FADDI-PA021m; assay: MIC against polymyxin-resistant cystic fibrosis isolate FADDI-PA021m; format: cell-based
[10] = system: P. aeruginosa FADDI-PA021m; assay: Static time-kill study, FADDI-PA021m; format: cell-based; conditions: native teixobactin or polymyxin B (MICs >128 mg/L)

Compound: NCC[C@H](O)C(=O)N[C@@H]1C[C@H](N)[C@@H](O[C@H]2O[C@H](CN)[C@@H](O)[C@H](O)[C@H]2O)[C@H](O)[C@H]1O[C@H]1O[C@H](CO)[C@@H](O)[C@H](N)[C@H]1O [AMK, amikacin]
- MIC50 [1]: 16 µg/mL
- MIC90 [1]: > 32 µg/mL

Compound: CCCCCCCCCC(=O)N[C@H](CCN)C(=O)N[C@H]1CCNC(=O)[C@H](CC(C)C)NC(=O)[C@H](CCN)NC(=O)[C@H](CCN)NC(=O)[C@H](CC(C)C)NC(=O)[C@@H](Cc2ccccc2)NC(=O)[C@H](CCN)NC1=O [FADDI-115] (Decanoyl-[dDab][Dab][Dab][dF]L[Dab][Dab]L; lactam 2-C)
- activity against Gram-negative bacteria [2]: potent activity
- activity against Gram-positive bacteria [3]: potent activity

Compound: C[C@H]1COc2c(N3CCN(C)CC3)c(F)cc3c(=O)c(C(=O)O)cn1c23 [LEVO, levofloxacin]
- MIC50 [1]: 8 µg/mL
- MIC90 [1]: > 16 µg/mL

Compound: C[C@@H](O)[C@H]1C(=O)N2C(C(=O)O)=C(S[C@@H]3CN[C@H](C(=O)N(C)C)C3)[C@H](C)[C@H]12 [MER, meropenem]
- MIC50 [1]: 16 µg/mL
- MIC90 [1]: > 32 µg/mL

Compound: CCCCCCC[C@@H](O)CC(=O)N[C@H](CCN)C(=O)NC1CCNC(=O)[C@H](CC(C)C)NC(=O)[C@H](CCN)NC(=O)[C@H](CCN)NC(=O)[C@H](CC(C)C)NC(=O)[C@@H](Cc2ccccc2)NC(=O)[C@H](CCN)NC1=O (stereo partly drawn) [octapeptin C4] ({Decanoyl(3R-OH)}-[dDab][ξDab][Dab][dF]L[Dab][Dab]L; lactam 2-C)
- activity against Gram-negative bacteria [2]: potent activity
- activity against Gram-positive bacteria [3]: potent activity

Compound: ceftazidime-avibactam [CAZ-AVI]
- MIC50 [4]: 2 mg/L
- MIC90 [4]: 8 mg/L

Compound: colistin
- colistin MIC (PDR strains) [5]: 8 to 128 mg/L
- MIC50 [4]: 1 mg/L
- MIC90 [4]: 1 mg/L
- colistin MIC (PDR strains) [6]: >128 mg/L
- colistin MIC (PDR strains) [7]: 8 to 128 mg/L
- efficacy of parenteral colistin for pulmonary infections [8]: disappointing
- exposure of colistin at the infection site ([8]; parenteral, pulmonary infections): very limited exposure at the infection site

Compound: gentamicin [GNT]
- MIC50 [4]: 8 mg/L
- MIC90 [4]: >16 mg/L

Compound: piperacillin-tazobactam [PIP-TAZ]
- MIC50 [4]: 64 mg/L
- MIC90 [4]: >128 mg/L

Compound: polymyxin B
- MIC [9]: > 128 mg/L
- killing [10]: no killing was observed
